Legend:
[1] = molecular target: Voltage-gated potassium channel, KQT; KCNQ2(Kv7.2)/KCNQ3(Kv7.3) (Homo sapiens) (UniProt O43526+O43525); test: (§1) Activation of human Kv7.2/7.3 expressed in CHOK1 cells; format: cell-based; details: CHO-K1; for max activation: test concentration or dose not given here
[2] = molecular target: Voltage-gated potassium channel, KQT; KCNQ2(Kv7.2)/KCNQ3(Kv7.3) (Homo sapiens, UniProt O43525+O43526); test: as §1; format: cell-based, CHO-K1
[3] = Intrinsic clearance in human liver microsomes measured over 1 hr in presence of NADPH regenerating system; format: ADME; details: read-out: CLH
[4] = Permeability in dog RRCK cells after 2 hrs by transwell assay; format: ADME, cell-based, Canis lupus familiaris, MDCKII-LE; details: mdck, read-out: permeability
MDCK = test: Efflux ratio of permeability from basolateral to apical over apical to basolateral side in MDCK cells transfected with MDR1; format: ADME, cell-based, Canis lupus familiaris; details: dog
[5] = Toxicity in human THLE cells assessed as ATP depletion; format: cell-based
Liver microsome = test: Stability in human liver microsomes in absence of NADPH; format: ADME

Sequence of Voltage-gated potassium channel, KQT; KCNQ2(Kv7.2)/KCNQ3(Kv7.3) (O43526 whole entry): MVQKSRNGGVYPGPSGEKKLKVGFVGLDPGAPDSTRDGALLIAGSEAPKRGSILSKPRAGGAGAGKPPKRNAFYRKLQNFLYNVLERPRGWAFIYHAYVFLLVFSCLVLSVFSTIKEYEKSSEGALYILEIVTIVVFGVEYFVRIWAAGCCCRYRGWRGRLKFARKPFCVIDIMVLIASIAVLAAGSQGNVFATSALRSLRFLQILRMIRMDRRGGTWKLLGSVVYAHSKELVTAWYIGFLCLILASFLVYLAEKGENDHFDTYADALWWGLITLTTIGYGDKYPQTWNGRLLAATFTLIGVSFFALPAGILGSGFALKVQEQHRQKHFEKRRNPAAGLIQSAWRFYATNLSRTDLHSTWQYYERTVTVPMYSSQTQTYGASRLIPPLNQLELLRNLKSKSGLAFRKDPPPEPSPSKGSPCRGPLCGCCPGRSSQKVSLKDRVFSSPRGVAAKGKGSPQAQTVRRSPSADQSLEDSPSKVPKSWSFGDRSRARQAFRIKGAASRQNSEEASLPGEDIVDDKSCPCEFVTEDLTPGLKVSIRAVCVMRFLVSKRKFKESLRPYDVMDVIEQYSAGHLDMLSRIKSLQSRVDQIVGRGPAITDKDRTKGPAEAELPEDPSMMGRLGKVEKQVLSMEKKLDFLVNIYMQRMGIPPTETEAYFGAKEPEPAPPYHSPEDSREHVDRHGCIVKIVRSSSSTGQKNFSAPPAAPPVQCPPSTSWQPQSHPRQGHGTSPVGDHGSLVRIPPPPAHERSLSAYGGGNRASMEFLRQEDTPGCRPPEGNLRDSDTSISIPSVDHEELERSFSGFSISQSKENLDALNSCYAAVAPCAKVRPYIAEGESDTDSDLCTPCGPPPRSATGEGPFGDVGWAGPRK
Sequence of Voltage-gated potassium channel, KQT; KCNQ2(Kv7.2)/KCNQ3(Kv7.3) (O43525 whole entry): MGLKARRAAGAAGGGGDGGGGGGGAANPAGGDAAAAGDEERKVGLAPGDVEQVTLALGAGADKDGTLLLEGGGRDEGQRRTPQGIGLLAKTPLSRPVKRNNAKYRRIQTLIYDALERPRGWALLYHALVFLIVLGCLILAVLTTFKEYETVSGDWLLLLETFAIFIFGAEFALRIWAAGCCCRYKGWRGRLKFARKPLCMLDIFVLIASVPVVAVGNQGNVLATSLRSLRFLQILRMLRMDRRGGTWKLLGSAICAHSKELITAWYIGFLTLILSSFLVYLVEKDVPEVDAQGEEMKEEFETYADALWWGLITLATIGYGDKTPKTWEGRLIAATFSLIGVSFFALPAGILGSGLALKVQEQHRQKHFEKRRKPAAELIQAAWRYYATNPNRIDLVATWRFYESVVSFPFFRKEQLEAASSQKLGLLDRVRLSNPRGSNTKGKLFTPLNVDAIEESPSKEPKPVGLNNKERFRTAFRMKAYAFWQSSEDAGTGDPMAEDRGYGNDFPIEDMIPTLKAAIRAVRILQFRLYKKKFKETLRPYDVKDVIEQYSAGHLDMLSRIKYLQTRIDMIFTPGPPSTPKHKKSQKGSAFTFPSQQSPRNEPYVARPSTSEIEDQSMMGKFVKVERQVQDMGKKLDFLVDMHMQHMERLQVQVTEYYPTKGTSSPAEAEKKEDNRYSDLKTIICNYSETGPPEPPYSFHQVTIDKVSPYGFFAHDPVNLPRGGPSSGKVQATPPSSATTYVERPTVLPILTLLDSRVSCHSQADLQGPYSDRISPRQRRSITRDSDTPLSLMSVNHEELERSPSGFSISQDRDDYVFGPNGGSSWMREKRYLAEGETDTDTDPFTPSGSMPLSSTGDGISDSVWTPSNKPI

COc1nc(N2CCCCC2)nc(OC)c1NC(=O)CC(C)(C)C
max activation [1]: 182%
EC50 [2]: 64 nM
CLint scaled [3]: 43.7 mL/min/kg
Papp at 2 h [4]: 22.3 ×10⁻⁶ cm/s
Ratio (MDCK): 1.59
IC50 [5]: > 300000 nM

COc1nc(N2CC3(COC3)C2)nc(OC)c1NC(=O)CC(C)(C)C
max activation [1]: 106%
EC50 [2]: 9190 nM

COc1nc(N2CC(F)(F)C2)nc(OC)c1NC(=O)CC(C)(C)C
max activation [1]: 103%
EC50 [2]: 110 nM
CLint scaled [3]: 18.9 mL/min/kg
Papp at 2 h [4]: 28 ×10⁻⁶ cm/s
Ratio (MDCK): 1.29
IC50 [5]: > 300000 nM

COc1nc(N2CCC(OC)CC2)nc(OC)c1NC(=O)CC1CCCCC1
max activation [1]: 152%
EC50 [2]: 162 nM

COc1nc(N2CCCOCC2)nc(OC)c1NC(=O)CC(C)(C)C
max activation [1]: 85%
EC50 [2]: 62 nM
CLint scaled [3]: 24.4 mL/min/kg
Papp at 2 h [4]: 20.2 ×10⁻⁶ cm/s
Ratio (MDCK): 1.25
IC50 [5]: > 300000 nM

COCCN(C)c1nc(OC)c(NC(=O)CC(C)(C)C)c(OC)n1
max activation [1]: 166%
EC50 [2]: 206 nM
CLint scaled [3]: 21 mL/min/kg
Ratio (MDCK): 1.11
IC50 [5]: > 300000 nM

COc1nc(N2CCOCC2)nc(OC)c1NC(=O)CC(C)(C)C
max activation [1]: 95%
EC50 [2]: 164 nM
CLint scaled [3]: < 10.4 mL/min/kg
Papp at 2 h [4]: 25.9 ×10⁻⁶ cm/s
Ratio (MDCK): 1.11
IC50 [5]: > 300000 nM

COc1nc(N2CC(OC)C2)nc(OC)c1NC(=O)CC(C)(C)C
max activation [1]: 103%
EC50 [2]: 961 nM

COc1nc(N2CCC(F)(F)CC2)nc(OC)c1NC(=O)CC(C)(C)C
max activation [1]: 99%
EC50 [2]: 50 nM
CLint scaled [3]: 21.6 mL/min/kg
Ratio (MDCK): 1.29
IC50 [5]: > 300000 nM

COc1nc(N2CCSCC2)nc(OC)c1NC(=O)CC(C)(C)C
max activation [1]: 92%
EC50 [2]: 24 nM
CLint scaled [3]: 69.6 mL/min/kg

COc1nc(N2CCC(OC(C)C)CC2)nc(OC)c1NC(=O)CC(C)(C)C
max activation [1]: 145%
EC50 [2]: 358 nM

COc1nc(N2CCC(OC)CC2)nc(OC)c1NC(=O)CCC1CCCC1
max activation [1]: 126%
EC50 [2]: 40 nM
Papp at 2 h [4]: 15.2 ×10⁻⁶ cm/s
Ratio (MDCK): 1.21
IC50 [5]: 80500 nM
Stability (Liver microsome): Unstable

COc1nc(N2CCC(OC)CC2)nc(OC)c1NC(=O)CC(C)C
max activation [1]: 138%
EC50 [2]: 630 nM

COc1nc(N2C[C@@H]3C[C@H]2CO3)nc(OC)c1NC(=O)CC(C)(C)C
max activation [1]: 101%
EC50 [2]: 1890 nM

CCOC(=O)Nc1ccc(NCc2ccc(F)cc2)cc1N [EZOGABINE]
CLint scaled [3]: < 8 mL/min/kg
Papp at 2 h [4]: 34.2 ×10⁻⁶ cm/s
Ratio (MDCK): 1.13
IC50 [5]: 213000 nM

COc1nc(N2CCC(OC)CC2)nc(OC)c1NC(=O)CCC(C)C
max activation [1]: 132%
EC50 [2]: 304 nM

COc1nc(N2CCC(OC)CC2)nc(OC)c1NC(=O)CC1CCCC1
max activation [1]: 143%
EC50 [2]: 343 nM

From ChEMBL document CHEMBL3621090, “Discovery of a novel Kv7 channel opener as a treatment for epilepsy” (Bioorg Med Chem Lett, 2015)
